According to patent publication US9499550B2 (BRISTOL-MYERS SQUIBB COMPANY, priority 2012, dated 2016):
Where two headings read alike, the source gives them in different places.

Tests used:
[1] = test system: HCV genotype 1b (Con1) replicon in HUH-7 cells; test: HCV replicon luciferase reporter assay, genotype 1b; type: cell-based; settings: Hepatitis C virus, Huh-7, 72 h, HCV genotype 1b replicon luciferase, 3 days incubation
Method in brief: (§1)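 Replicon inhibition for both genotypes was measured as Renilla luciferase signal (EnduRen, 7.5 μM final, 2 h) after 3-day, 37° C exposure of replicon-bearing HUH-7 cells in 4% FCS DMEM, 0.5% DMSO. The 1b construct carries S1179I; the 1a H77 construct carries P1496L and S2204I. Twenty-point, 3-fold dilutions were fitted four-parametrically for EC50, and CC50 was taken from multiplexed Cell Titer-Blue.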

[2] = test system: HCV genotype 1a (H77 strain) replicon in HUH-7 cells; test: HCV replicon luciferase reporter assay, genotype 1a; type: cell-based; settings: Hepatitis C virus, Huh-7, 72 h, HCV genotype 1a replicon luciferase, 3 days incubation
Method in brief: as §1

[3] = GETYPE1B, read-out: LE_1b (EC50, range)
[4] = GETYPE1A, read-out: LE_1a (EC50, range)
[5] = GETYPE1B, read-out: LE_1b (EC50)
[6] = GETYPE1A, read-out: LE_1a (EC50)

Row | SMILES | EC50 [1, 3] [nM] | EC50 [2, 4] [nM] | further results
1 | CC[C@@H]1C[C@H](C)CC/C=C\[C@@H]2C[C@@]2(C(=O)NS(=O)(=O)C2(C)CC2)NC(=O)[C@@H]2C[C@@H](Oc3nc(OC)cc4cc(OC)c(F)cc34)CN2C(=O)[C@H]1NC(=O)OC(C)(C)C(F)(F)F [Compound 1187] | 1.01 to 5 | 5.01 to 35 | –
2 | CC[C@@H]1C[C@H](C)CC/C=C\[C@@H]2C[C@@]2(C(=O)NS(=O)(=O)C2(C)CC2)NC(=O)[C@@H]2C[C@@H](Oc3nc(OC)cc4cc(OC)c(F)cc34)CN2C(=O)[C@H]1NC(=O)OC(C)(C)C(C)(F)F [Compound 1188] | 0.51 to 1 | 1.01 to 5 | –
3 | CC[C@@H]1C[C@H](C)CC/C=C\[C@@H]2C[C@@]2(C(=O)NS(=O)(=O)C2(C)CC2)NC(=O)[C@@H]2C[C@@H](Oc3nc(OC)cc4cc(OC)c(F)cc34)CN2C(=O)[C@H]1NC(=O)OC1(C(F)(F)F)CCCOC1 (some centres unmarked) [Compound 1189] | 0.51 to 1 | 1.01 to 5 | –
4 | COc1cc2ccnc(O[C@@H]3C[C@H]4C(=O)N[C@]5(C(=O)NS(=O)(=O)C6(CF)CC6)C[C@H]5/C=C\CC[C@@H](C)C[C@@H](C)[C@H](NC(=O)OC5(C(F)(F)F)CCCCO5)C(=O)N4C3)c2cc1F (some centres unmarked) [Compound 1190] | 1.01 to 5 | 1.01 to 5 | EC50 [1, 5]: 1.12 nM; EC50 [2, 6]: 1.66 nM
5 | COc1cc2ccnc(O[C@@H]3C[C@H]4C(=O)N[C@]5(C(=O)NS(=O)(=O)C6(CF)CC6)C[C@H]5/C=C\CC[C@H](C)C[C@@H](C)[C@H](NC(=O)OC5(C(F)(F)F)CCCCO5)C(=O)N4C3)c2cc1F (some centres unmarked) [Compound 1191] | 5.01 to 35 | 5.01 to 35 | –
6 | CC[C@@H]1C[C@H](C)CC/C=C\[C@@H]2C[C@@]2(C(=O)NS(=O)(=O)C2(C)CC2)NC(=O)[C@@H]2C[C@@H](Oc3nccc4cc(OC)c(F)cc34)CN2C(=O)[C@H]1NC(=O)OC1(C(F)(F)F)CCCCO1 (some centres unmarked) [Compound 1192] | 0.51 to 1 | 1.01 to 5 | –
7 | CC[C@@H]1C[C@H](C)CC/C=C\[C@@H]2C[C@@]2(C(=O)NS(=O)(=O)C2(CF)CC2)NC(=O)[C@@H]2C[C@@H](Oc3nc(OC)cc4cc(OC)ccc34)CN2C(=O)[C@H]1NC(=O)OC(C)(C)C(F)(F)F [Compound 1193] | 0.51 to 1 | 1.01 to 5 | –
8 | CC[C@@H]1C[C@@H](C)CC/C=C\[C@@H]2C[C@@]2(C(=O)NS(=O)(=O)C2(CF)CC2)NC(=O)[C@@H]2C[C@@H](Oc3nc(OC)cc4cc(OC)ccc34)CN2C(=O)[C@H]1NC(=O)OC(C)(C)C(F)(F)F [Compound 1194] | 1.01 to 5 | 5.01 to 35 | –
9 | CC[C@@H]1C[C@H](C)CC/C=C\[C@@H]2C[C@@]2(C(=O)NS(=O)(=O)C2CC2)NC(=O)[C@@H]2C[C@@H](Oc3nc4c(c5cc(OC)c(F)cc35)CCCO4)CN2C(=O)[C@H]1NC(=O)OC(C)(C)C(F)(F)F [Compound 1195] | 1.01 to 5 | 1.01 to 5 | –
10 | COc1cc2c3c(nc(O[C@@H]4C[C@H]5C(=O)N[C@]6(C(=O)NS(=O)(=O)C7(C)CC7)C[C@H]6/C=C\CC[C@@H](C)C[C@@H](C)[C@H](NC(=O)OC(C)(C)C(F)(F)F)C(=O)N5C4)c2cc1F)OCCC3 [Compound 1196] | 0.51 to 1 | 0.51 to 1 | –
11 | CC[C@@H]1C[C@H](C)CC/C=C\[C@@H]2C[C@@]2(C(=O)NS(=O)(=O)C2(C)CC2)NC(=O)[C@@H]2C[C@@H](Oc3nc4c(c5cc(OC)c(F)cc35)CCCO4)CN2C(=O)[C@H]1NC(=O)OC(C)(C)C(F)(F)F [Compound 1197] | 0.51 to 1 | 1.01 to 5 | –
12 | CC[C@@H]1C[C@H](C)CC/C=C\[C@@H]2C[C@@]2(C(=O)NS(=O)(=O)C2(C)CC2)NC(=O)[C@@H]2C[C@@H](Oc3nc4c(c5cc(OC)c(F)cc35)CCCO4)CN2C(=O)[C@H]1NC(=O)OC(C)(C)C(C)(F)F [Compound 1198] | 0.51 to 1 | 0.1 to 0.5 | EC50 [1, 5]: 0.9 nM; EC50 [2, 6]: 0.5 nM
13 | CC[C@@H]1C[C@H](C)CC/C=C\[C@@H]2C[C@@]2(C(=O)NS(=O)(=O)C2(C)CC2)NC(=O)[C@@H]2C[C@@H](Oc3cc(OC)nc4cc(OC)c(F)cc34)CN2C(=O)[C@H]1NC(=O)OC(C)(C)C(F)(F)F [Compound 1199] | 1.01 to 5 | 1.01 to 5 | –
14 | CC[C@@H]1C[C@H](C)CC/C=C\[C@@H]2C[C@@]2(C(=O)NS(=O)(=O)C2(C)CC2)NC(=O)[C@@H]2C[C@@H](Oc3cc(OC)nc4cc(OC)c(F)cc34)CN2C(=O)[C@H]1NC(=O)OC(C)(C)C(C)(F)F [Compound 1200] | 1.01 to 5 | 1.01 to 5 | –
15 | CC[C@@H]1C[C@H](C)CC/C=C\[C@@H]2C[C@@]2(C(=O)NS(=O)(=O)C2CC2)NC(=O)[C@@H]2C[C@@H](Oc3cc(OC)nc4cc(OC)c(F)cc34)CN2C(=O)[C@H]1NC(=O)OC(C)(C)C(F)(F)F [Compound 1201] | 1.01 to 5 | 1.01 to 5 | –
16 | CC[C@@H]1C[C@H](C)CC/C=C\[C@@H]2C[C@@]2(C(=O)NS(=O)(=O)C2CC2)NC(=O)[C@@H]2C[C@@H](Oc3cc(OC)nc4cc(OC)c(F)cc34)CN2C(=O)[C@H]1NC(=O)OC(C)(C)C(C)(F)F [Compound 1202] | 0.51 to 1 | 1.01 to 5 | –
17 | COc1cc(O[C@@H]2C[C@H]3C(=O)N[C@]4(C(=O)NS(=O)(=O)C5(C)CC5)C[C@H]4/C=C\CC[C@@H](C)C[C@@H](C)[C@H](NC(=O)OC(C)(C)C(F)(F)F)C(=O)N3C2)c2cc(F)c(OC)cc2n1 [Compound 1203] | 0.1 to 0.5 | 1.01 to 5 | –
18 | COc1cc(O[C@@H]2C[C@H]3C(=O)N[C@]4(C(=O)NS(=O)(=O)C5(C)CC5)C[C@H]4/C=C\CC[C@@H](C)C[C@@H](C)[C@H](NC(=O)OC(C)(C)C(C)(F)F)C(=O)N3C2)c2cc(F)c(OC)cc2n1 [Compound 1204] | 0.51 to 1 | 1.01 to 5 | –
19 | COc1ccc2c(O[C@@H]3C[C@H]4C(=O)N[C@]5(C(=O)NS(=O)(=O)C6CC6)C[C@H]5/C=C\CC[C@@H](C)C[C@@H](C)[C@H](NC(=O)OC(C)(C)C)C(=O)N4C3)nccc2c1 [Compound 1205, tert-butyl ((2R,6S,7R,9R,13aS,14aR,16aS,Z)-14a-((cyclopropylsulfonyl)carbamoyl)-2-((6-methoxyisoquinolin-1-yl)oxy)-7,9-dimethyl-5,16-dioxo-1,2,3,5,6,7,8,9,10,11,13a,14,14a,15,16,16a-hexadecahydrocyclopropa[e]pyrrolo[1,2-a][1,4]diazacyclopentadecin-6-yl)carbamate] | – | – | EC50 ([1]; read-out: LE_1b (EC50)): 0.75 nM; EC50 ([1]; read-out: LE_1b (EC50, range)): 0.51 to 1 nM; EC50 ([2]; read-out: LE_1a (EC50)): 0.62 nM; EC50 ([2]; read-out: LE_1a (EC50, range)): 0.51 to 1 nM
20 | COc1ccc2c(O[C@@H]3C[C@H]4C(=O)N[C@]5(C(=O)NS(=O)(=O)C6CC6)C[C@H]5/C=C\CC[C@H](C)C[C@@H](C)[C@H](NC(=O)OC(C)(C)C)C(=O)N4C3)nccc2c1 [Compound 1206, tert-butyl ((2R,6S,7R,9S,13aS,14aR,16aS,Z)-14a-((cyclopropylsulfonyl)carbamoyl)-2-((6-methoxyisoquinolin-1-yl)oxy)-7,9-dimethyl-5,16-dioxo-1,2,3,5,6,7,8,9,10,11,13a,14,14a,15,16,16a-hexadecahydrocyclopropa[e]pyrrolo[1,2-a][1,4]diazacyclopentadecin-6-yl)carbamate] | – | – | EC50 ([1]; read-out: LE_1b (EC50, range)): 1.01 to 5 nM; EC50 ([2]; read-out: LE_1a (EC50, range)): 1.01 to 5 nM
21 | COc1cnc(O[C@@H]2C[C@H]3C(=O)N[C@]4(C(=O)NS(=O)(=O)C5CC5)C[C@H]4/C=C\CC[C@@H](C)C[C@@H](C)[C@H](NC(=O)OC(C)(C)C)C(=O)N3C2)c2cc(Cl)ccc12 [Compound 1207, tert-butyl ((2R,6S,7R,9R,13aS,14aR,16aS,Z)-2-((7-chloro-4-methoxyisoquinolin-1-yl)oxy)-14a-((cyclopropylsulfonyl)carbamoyl)-7,9-dimethyl-5,16-dioxo-1,2,3,5,6,7,8,9,10,11,13a,14,14a,15,16,16a-hexadecahydrocyclopropa[e]pyrrolo[1,2-a][1,4]diazacyclopentadecin-6-yl)carbamate] | – | – | EC50 ([1]; read-out: LE_1b (EC50, range)): 0.51 to 1 nM; EC50 ([2]; read-out: LE_1a (EC50, range)): 1.01 to 5 nM
22 | COc1cnc(O[C@@H]2C[C@H]3C(=O)N[C@]4(C(=O)NS(=O)(=O)C5CC5)C[C@H]4/C=C\CC[C@H](C)C[C@@H](C)[C@H](NC(=O)OC(C)(C)C)C(=O)N3C2)c2cc(Cl)ccc12 [Compound 1208, tert-butyl ((2R,6S,7R,9S,13aS,14aR,16aS,Z)-2-((7-chloro-4-methoxyisoquinolin-1-yl)oxy)-14a-((cyclopropylsulfonyl)carbamoyl)-7,9-dimethyl-5,16-dioxo-1,2,3,5,6,7,8,9,10,11,13a,14,14a,15,16,16a-hexadecahydrocyclopropa[e]pyrrolo[1,2-a][1,4]diazacyclopentadecin-6-yl)carbamate] | – | – | EC50 ([1]; read-out: LE_1b (EC50, range)): 1.01 to 5 nM; EC50 ([2]; read-out: LE_1a (EC50, range)): 5.01 to 35 nM
23 | CC[C@@H]1C[C@H](C)CC/C=C\[C@@H]2C[C@@]2(C(=O)NS(=O)(=O)C2(C)CC2)NC(=O)[C@@H]2C[C@@H](Oc3cc(OC)nc4cc(OC)ccc34)CN2C(=O)[C@H]1NC(=O)OC(C)(C)C(F)(F)F [Compound 1209] | 1.01 to 5 | 5.01 to 35 | EC50 [1, 5]: 2 nM; EC50 [2, 6]: 5.66 nM
24 | CC[C@@H]1C[C@H](C)CC/C=C\[C@@H]2C[C@@]2(C(=O)NS(=O)(=O)C2(C)CC2)NC(=O)[C@@H]2C[C@@H](Oc3cc(OC)nc4cc(OC)ccc34)CN2C(=O)[C@H]1NC(=O)OC(C)(C)C(C)(F)F [Compound 1210] | 0.51 to 1 | 1.01 to 5 | –
